Data: patent publication US5126341A, “Anti-inflammatory 1,8-naphthyridin-2-one derivatives” (Kyowa Hakko Kogyo Co., Ltd., priority 1990, dated 1992)
Where two headings read alike, the source gives them in different places.

Experiments:
[1] = tested on: carrageenin-induced paw edema; assay: Effect on carrageenin-induced paw edema; format: in vivo, male Wistar rats; conditions: po; rat, 100 mg/kg p.o., 1 hour before 1% carrageenin; paw volume 3 hours after injection; read-out: Suppression rate for paw swelling, (a) carrageenin-induced edema
Method: a) Effect on carrageenin-induced paw edema
Male Wistar rats weighing 150 to 160 g (n=3-5) were used in the experiment. After the right hind paw volume was measured with the plethysmograph (TK-101; Unicom Co., Ltd.), the test compound (100 mg/kg) was orally administered. After one hour, 0.1 ml of 1 % carrageenin (λ-carrageenin; PICNIN-A®, Zushi Kagaku Co., Ltd.) was subcutaneously injected into the right hind paw footpad. Three hours after the injection of carrageenin, the right hind paw volume was measured and the swelling rate was determined by the following equation 1. [formula]
Vt: the right hind paw volume measured 3 hours after the injection of carrageenin
Vo: the right hind paw volume measured prior to the injection of carrageenin
The suppression rate was calculated by the following equation 2. [formula]
Swt: the swelling rate of the group administered with the test compound
Swc: the swelling rate of the control group administered with no test compound

[2] = tested on: zymosan-induced paw edema; assay: Effect on zymosan-induced paw edema; format: in vivo, male Wistar rats; conditions: rat, 100 mg/kg p.o., 1 hour before 1% zymosan; paw volume 4 hours after injection
Method: b) Effect on zymosan-induced paw edema
(§1) The experiment was carried out in the same manner as in the carrageenin-induced paw edema test except that 1% zymosan (Zymosan A®; Sigma Chemical Co.) was used in place of 1% carrageenin and the right hind paw volume was measured 4 hours after the injection of the edema-inducing substance instead of 3 hours. The swelling rate and the suppression rate were calculated by equation 1 and equation 2, respectively.

[3] = tested on: arachidonic acid-induced paw edema; assay: Arachidonic acid-induced paw edema; format: in vivo, male Wistar rats; conditions: rat, 100 mg/kg p.o., 1 hour before 0.5% arachidonic acid; paw volume one hour after injection
Method: c) Arachidonic acid-induced paw edema
as §1, with “0.5% arachidonic acid” for “1% zymosan (Zymosan A®; Sigma Chemical Co.)”, “one hour” for “4 hours”

[4] = tested on: Type III allergic reaction-induced pleurisy; assay: Effect on Type III allergic reaction-induced pleurisy; format: in vivo, male Wistar rats; conditions: po, 4.5 h, rat, 100 mg/kg p.o., four and a half hours after induction of pleurisy
Method: d) Effect on Type III allergic reaction-induced pleurisy
IgG was purified from rabbit anti-OA serum prepared in advance by the method of Koda et al. [Folia Pharmacol., Japon 66, 237, (1970)] in the following manner.
A saturated solution of ammonium sulfate (half volume of the serum) was added to the anti-OA serum, and the mixture was left for one hour at 4° C. The precipitate was taken by centrifugation (3,000 rpm, 30 min, 4° C.) and dissolved in phosphate buffered saline of Dulbecco. Then, ammonium sulfate fractionation was carried out three times in the same manner as above, whereby a purified IgG fraction was obtained.
Male Wistar rats weighing 225-250 g were pre-bred for several days and fasted overnight prior to the experiment The test compound (100 mg/kg) was orally administered to the animals, and after 30 minutes, IgG of rabbit anti-OA (0.2 ml, 5 mg protein/ml) was injected into the pleural cavity of the animals under anesthesia with ether. Thirty minutes after the injection of IgG, OA (albumin egg grade III; Sigma Chemical Co.) was intravenously injected into the animals as an inducer of pleurisy. After two hours, Evans Blue (25 mg/kg) was intravenously injected, and four and a half hours after the induction of pleurisy, the animals were killed by bleeding.
Then, an exudate in the pleural cavity was obtained, and the volume of the exudate was measured. The pleural cavity was rinsed with 5 ml of physiological saline and the rinsings were added to the exudate. The number of infiltrated cells in the mixture was counted and the volume of the dye in the mixture was determined by the absorption at 625 nm [Agent Actions., 25, 326 (1988)]. The suppression rates for the volume of the exudate, the number of infiltrated cells and the volume of the dye in the pleural cavity were calculated by the following equation 3. [formula]
S.V: the value obtained with the group administered with the test compound and in which pleurisy is induced
N.V: the value obtained with the group in which pleurisy is not induced
P.V: the value obtained with the group administered with no test compound and in which pleurisy is induced

male dd-mice = conditions: mouse, in vivo, 10080 min; for Acute toxicity (MLD, Minimum Lethal Dose) i.p.: ip; for Acute toxicity (MLD, Minimum Lethal Dose) p.o.: po
Method: The test compounds were orally or intraperitoneally administered to male dd-mice weighing 20 to 25 g. MLD (Minimum Lethal Dose) was determined by observing the mortality for seven days after the administration.

[5] = Evans Blue 25 mg/kg i.v., absorption at 625 nm, read-out: Suppression rate, volume of dye in the exudate
[6] = read-out: Suppression rate, number of infiltrated cells in the exudate
[7] = read-out: Suppression rate, volume of exudate

**Q.** Which results are given for O=C(Nc1cccnc1)c1c(O)c2cccnc2n(-c2ccccc2)c1=O [Compound 4, 4-Hydroxy-2-oxo-1-phenyl-N-(3-pyridyl)-1H-1,8-naphthyridine-3-carboxamide]?
**A.** inhibition in vivo at 100 mg/kg [1]: 40%; Suppression rate for paw swelling, (b) zymosan-induced edema [2]: 37.8%; Suppression rate for paw swelling, (c) arachidonic acid-induced edema [3]: 34.9%; inhibition in vivo at 100 mg/kg [4, 5]: 54.4%; inhibition in vivo at 100 mg/kg [4, 6]: 30.5%; inhibition in vivo at 100 mg/kg [4, 7]: 75.3%; Acute toxicity (MLD, Minimum Lethal Dose) i.p. (male dd-mice): > 100 mg/kg; Acute toxicity (MLD, Minimum Lethal Dose) p.o. (male dd-mice): > 300 mg/kg

**Q.** Which inhibition in vivo at 100 mg/kg [1] does the source give for O=C(Nc1ccncc1)c1c(O)c2cccnc2n(-c2ccccc2)c1=O [Compound 5, 4-Hydroxy-2-oxo-1-phenyl-N-(4-pyridyl)-1H-1,8-naphthyridine-3-carboxamide] here?
**A.** 38.5%

**Q.** What about the “Suppression rate for paw swelling, (b) zymosan-induced edema” value [2] of the same compound?
**A.** 38.4%

**Q.** What about the “Suppression rate for paw swelling, (c) arachidonic acid-induced edema” value [3] of the same compound?
**A.** 48.0%

**Q.** What about the inhibition in vivo at 100 mg/kg [4, 5] of the same compound?
**A.** 66.5%

**Q.** And the inhibition in vivo at 100 mg/kg [4, 6]?
**A.** 58.6%

**Q.** And the inhibition in vivo at 100 mg/kg [4, 7]?
**A.** 100%

**Q.** And the “Acute toxicity (MLD, Minimum Lethal Dose) i.p.” value (male dd-mice)?
**A.** > 100 mg/kg

**Q.** And the “Acute toxicity (MLD, Minimum Lethal Dose) p.o.” value (male dd-mice)?
**A.** 300 mg/kg
